# Results: US5240961A, “Method of treating reduced insulin-like growth factor and bone loss associated with aging” (priority 1992, dated 1993)
# “And” between values parts separate entries of the source, which are not always exact repeats. Equal entries are not always repeated. “Also recorded” adds a separate entry of the source. Where two headings read alike, the source gives them in different places.
# Experiments:
# [1] = tested on: bone mineral content of thoracic vertebrae; assay: Bone mineral content of thoracic vertebrae by bone scan (Example 4); format: in vivo, human
# Description: (§1) Seven adults from Example 3 agreed to receive a daily dosage of L-carnitine of 2 g/day, self-administered orally, for three months. Doses were administered four times daily, and each dose consisted of two 250 mg tablets. Of the seven individuals, two individuals dropped out of the study due to unrelated illness; thus, five remained in the study to completion. The following were evaluated by pretreatment and posttreatment comparisons: serum carnitine and serum IGF-1 by known methods, and bone mineral contents by bone scan of thoracic region, i.e., thoracic vertebrae, on a NORLAND scanner.
# serum IGF-1 [2] = assay: Serum IGF-1 after oral L-carnitine, double-blind study in patients over 60 (Example 5); format: in vivo, human; conditions: for IGF-1: individual subjects 010-019, 2 g/day oral; for average serum IGF-1: treatment group average
# Description: (§2) The present invention is further explained by the following examples which should not be construed by way of limiting the scope of the present invention. In the following examples, serum carnitine levels were determined by the method of R. Parvin et al., Anal. Biochem., vol. 79 (1979) pp. 190-201. Serum IGF-1 concentrations were measured by immunoradiometric assay, for example, by IRMA Kit available from Diagnostic Systems Laboratories, Inc., Webster, Texas. Serum osteocalcin levels were measured according to the method of Grunaberg et al., Meth. Enzymology, vol 107 (1984) 516, and which is embodied in an osteocalcin kit available from Biomedical Technologies, Inc., Stoughton, Mass. All mice used in the animal studies were BALB/c strain which is commercially available.
# (§3) Nineteen patients (over age 60) were enrolled in a preliminary double-blindstudy to establish the effect of oral L-carnitine treatment on serum IGF-1 and osteocalcin levels. Baseline, i.e., pretreatment, levels of serum IGF-1, osteocalcin and carnitine were measured by known methods. The patients were divided into two groups, control (n=9; subjects 001-009 in Table 5 below) and treatment (n=10; subjects 010-019 in Table 5 below). The treatment group received a daily dosage of 2 g of L-carnitine orally, self-administered, in four separate doses of two 250 mg tablets taken four times per day, for twelve weeks. The control group were given placebo, e.g., simple sugar. Serum samples were drawn every four weeks, and serum carnitine, IGF-1 and osteocalcin were determined.
# serum osteocalcin [3] = assay: Osteocalcin response to L-carnitine in aged mice; format: in vivo, mouse (BALB/c)
# Description: as §2
# Forty aged mice were separated into two groups. After an initial acclimatizing period of one week, one group was fed a diet with L-carnitine supplementation for six weeks and the other was fed normal, unsupplemented feed (control). […] The average daily food for each mouse was determined by weighing the food initially placed in the food bin and weighing the remaining food. […] Mouse blood was sampled prior to beginning of the trial (pretreatment), at the end of three weeks, and at six weeks (posttreatment), and was evaluated for serum osteocalcin and carnitine levels.
# serum osteocalcin [4] = assay: Osteocalcin response to L-carnitine in young mice; format: in vivo, mouse (BALB/c)
# Description: as §2
# Similar tests were performed on six young mice, i.e., 2 months 5 months of age. One group (n=3) was fed a diet with L-carnitine supplementation for three months, the other (n=3) was fed normal, unsupplemented feed (control). Each mouse in the test group was fed a daily oral dose of L-carnitine of about 50 mg/kg of body weight. Mouse blood was sampled prior to beginning of the trial (pretreatment) i.e., at two months of age, and at 5 months of age, and was evaluated for serum osteocalcin and carnitine levels.
# [5] = Serum carnitine levels in aged mice fed L-carnitine; format: in vivo, mouse (BALB/c); conditions: mouse, serum, po, 50 mg/kg/day, 50 mg/kg/day oral, six weeks
# Description: as §2
# (§4) Forty aged mice were separated into two groups. After an initial acclimatizing period of one week, one group was fed a diet with L-carnitine supplementation for six weeks and the other was fed normal, unsupplemented feed (control). Each mouse in the test group was fed a daily oral dose of L-carnitine of about 50 mg/kg of body weight. The average daily food for each mouse was determined by weighing the food initially placed in the food bin and weighing the remaining food. The feed was supplemented with L-carnitine so that each mouse in the test group consumed the test dose (50 mg/kg) of L-carnitine each day. Mouse blood was sampled prior to beginning of the trial (pretreatment), at the end of three weeks, and at six weeks (posttreatment), and was evaluated for serum osteocalcin and carnitine levels.
# serum carnitine = assay: as above; format: in vivo, mouse (BALB/c); conditions: 50 mg/kg/day
# Description: as §2, §4
# serum osteocalcin [6] = assay: Comparative effects of L-carnitine, acetyl carnitine and γ-butyrobetaine on serum osteocalcin in adult mice; format: in vivo, mouse (BALB/c male); conditions: for Osteocalcin: actual intake estimated about half
# Description: as §2
# (§5) Tests were performed to compare the effects on serum osteocalcin of diet supplementation with L-carnitine, its precursor, γ-butyrobetaine (available from Aldrich Chemical Co.) and one of its metabolites, acetylcarnitine (available from Life Science Resources, Milwaukee, Wis. 53223). Twenty adult mice, i.e., three months of age, (BALB/c male mice) were divided into seven groups. Each of the groups was fed diets as indicated hereinbelow for twelve weeks. One group (n=3) was fed a diet with L-carnitine supplementation at a dose of 50 mg/kg of body weight each day, while the second group (n=3) was fed L-carnitine at a daily dose of about 100 mg/kg. The third group (n=2) was fed a diet with acetylcarnitine supplementation at a daily dose of 50 mg/kg, while the fourth group (n=3) was fed a daily dose of 100 mg/kg of this compound. The fifth group (n=2) was fed a daily dose of 50 mg/kg of γ-butyrobetaine supplementation,while the sixth group was fed a daily dose of 100 mg/kg of γ-butyrobetaine. The seventh group (n=4) was fed normal, unsupplemented feed (control). Mouse blood was sampled prior to beginning of the trial (pretreatment), at six weeks, and at the end of the trial (twelve weeks). The samples were evaluated for serum osteocalcin levels at six and twelve weeks. Total carnitine was determined at twelve weeks.
# serum IGF-1 [7] = assay: IGF-1 response to L-carnitine supplementation in healthy adults over 60 (Example 4); format: in vivo, human; conditions: three months
# Description: as §2, §1
# [8] = Serum carnitine at 12 weeks in adult mice fed L-carnitine, acetyl carnitine or γ-butyrobetaine; set-up: species or system mouse (BALB/c male); conditions: mouse, in vivo, po, Serum carnitine
# Description: as §2, §5
# serum osteocalcin [9] = assay: Serum osteocalcin after oral L-carnitine, double-blind study in patients over 60 (Example 5); format: in vivo, human; conditions: for Osteocalcin: individual subjects 010-019, 2 g/day oral; for average serum osteocalcin: treatment group average
# Description: as §2, §3
smiles,measurement,setting,value
C[N+](C)(C)C[C@H](O)CC(=O)[O-] [L-carnitine],bone mineral content of the thoracic vertebral region,"[1]; all patients, after treatment",all patients demonstrated an increase in bone mineral content of the thoracic vertebral region
same,"Bone mineral content, post treatment","[1]; individual subjects, 2 g/day oral, three months",427.0 g and 1118.4 g and 986.1 g and 736.2 g and 887.7 g
same,"Bone mineral content, change","[1]; individual subjects, post vs pre treatment, 2 g/day oral, three months",+3.85% and +1.39% and +5.69% and +0.72% and +7.35%
same,"IGF-1 vs control at eight and twelve weeks, significance",serum IGF-1 [2]; eight and twelve weeks,just below significance
same,correlation between pretreatment IGF-1 and increase in IGF-1,"serum IGF-1 [2]; five treated patients with pretreatment IGF-1 under 200 ng/ml, four weeks",-0.654
same,serum IGF-1 after treatment,"serum IGF-1 [2]; four, eight and twelve week intervals, 1 unit=240 ng",above 500 U/L
same,IGF-1,serum IGF-1 [2]; 4 weeks,118 ng/mL and 192 ng/mL and 62 ng/mL and 213 ng/mL and 305 ng/mL and 318 ng/mL and 185 ng/mL and 178 ng/mL and 244 ng/mL and 173 ng/mL
same,IGF-1,serum IGF-1 [2]; 8 weeks,147 ng/mL and 197 ng/mL and 248 ng/mL and 157 ng/mL and 329 ng/mL and 201 ng/mL and 163 ng/mL and 168 ng/mL
same,IGF-1,serum IGF-1 [2]; 12 weeks,108 ng/mL and 157 ng/mL and 179 ng/mL and 260 ng/mL and 185 ng/mL and 207 ng/mL
same,average serum IGF-1,serum IGF-1 [2]; eight weeks,200.8 ng/mL
same,average serum IGF-1,serum IGF-1 [2]; four weeks,214.0 ng/mL
same,average serum IGF-1,serum IGF-1 [2]; twelve weeks,193.7 ng/mL
same,IGF-1 response,serum IGF-1 [2]; twelve week test period,"increased in the carnitine treatment group; also recorded: the lower the baseline level of IGF-1, the greater the increase in IGF-1; also recorded: restored and maintained IGF-1 levels at the normal range"
same,Osteocalcin,"serum osteocalcin [3]; aged mice (18 months), 50 mg/kg/day oral in feed, six weeks",29.6 ± 3.6 ng/mL
same,"significance of difference in osteocalcin, treated vs control (p, student's t test)","serum osteocalcin [3]; aged mice, 50 mg/kg/day",≤ 0.05
same,Osteocalcin,"serum osteocalcin [4]; 5 mos., 50 mg/kg/day oral for three months",256 ng/mL
same,osteocalcin vs control,"serum osteocalcin [4]; five months, 50 mg/kg/day",maintained a higher level of osteocalcin at five months
same,concentration at 1008 h,"[5]; read-out: Serum Carnitine, Free",57 ± 9.7 µM
same,concentration at 1008 h,"[5]; read-out: Serum Carnitine, Total",80.2 ± 9.5 µM
same,carnitine levels vs control group,serum carnitine,higher carnitine levels than the control group
same,"significance of difference in osteocalcin vs control (p, student's t test)",serum osteocalcin [6]; 50 mg/kg/day,< 0.01
same,Osteocalcin,"serum osteocalcin [6]; 50 mg/kg/day, 6 wks",151 ng/mL and 151 ± 4 ng/mL
same,Osteocalcin,"serum osteocalcin [6]; 50 mg/kg/day, 12 wks",153 ng/mL
same,"significance of difference in osteocalcin vs control (p, student's t test)",serum osteocalcin [6]; 100 mg/kg/day,< 0.05
same,Osteocalcin,"serum osteocalcin [6]; 100 mg/kg/day, 6 wks",199 ng/mL and 199 ± 7 ng/mL
same,Osteocalcin,"serum osteocalcin [6]; 100 mg/kg/day, 12 wks",115 ng/mL
same,effect on osteocalcin,"serum osteocalcin [6]; adult mice, 50 and 100 mg/kg/day",stimulate osteocalcin production in adult mice; also recorded: maintained osteocalcin blood levels
same,"significance of IGF-1 increase (p, paired comparisons)",serum IGF-1 [7]; 2 g/day oral,≤ 0.05
same,"IGF-1, posttreatment","serum IGF-1 [7]; individual subjects 001-005, 2 g/day oral",396 ng/mL and 280 ng/mL and 148 ng/mL and 270 ng/mL and 264 ng/mL
same,mean IGF-1 after treatment,"serum IGF-1 [7]; mean, 2 g/day oral, pretreatment mean 170",272 ng/mL
same,concentration at 2016 h,"[8]; 50 mg/kg/day, Free",52.1 µM
same,concentration at 2016 h,"[8]; 50 mg/kg/day, Total",66 µM
same,concentration at 2016 h,"[8]; 100 mg/kg/day, Free",41.6 µM
same,concentration at 2016 h,"[8]; 100 mg/kg/day, Total",59.5 µM
same,"osteocalcin vs control, significance","serum osteocalcin [9]; 4, 8 and 12 weeks",just below significance
same,Osteocalcin,serum osteocalcin [9]; 4 weeks,11.8 ng/mL and 13.6 ng/mL and 7.4 ng/mL and 11.5 ng/mL and 7.9 ng/mL and 10.4 ng/mL and 11.6 ng/mL and 3.6 ng/mL and 5.9 ng/mL
same,Osteocalcin,serum osteocalcin [9]; 8 weeks,11.9 ng/mL and 10.2 ng/mL and 7.0 ng/mL and 10.8 ng/mL and 9.0 ng/mL and 11.0 ng/mL and 2.4 ng/mL and 4.9 ng/mL
same,Osteocalcin,serum osteocalcin [9]; 12 weeks,9.3 ng/mL and 11.8 ng/mL and 8.7 ng/mL and 7.0 ng/mL and 9.1 ng/mL and 11.4 ng/mL and 6.5 ng/mL
same,average serum osteocalcin,serum osteocalcin [9]; eight weeks,8.4 ng/mL
same,average serum osteocalcin,serum osteocalcin [9]; four weeks,9.2 ng/mL
same,average serum osteocalcin,serum osteocalcin [9]; twelve weeks,9.1 ng/mL
